Reference: paper PMC10848157, “Assessing NH300094, a novel dopamine and serotonin receptor modulator with cognitive enhancement property for treating schizophrenia” (Frontiers in Pharmacology, 2024)

How the values were obtained:
[1] = target: D2L receptor (Homo sapiens, UniProt P14416); test: D2L receptor functional assay (cAMP assay, antagonist); assay type: cell-based; conditions: antagonist activity, CHO-K1/D2 cells, read-out: D2LR, IC50
[2] = target: T1, M1 receptor (Homo sapiens, UniProt P11229); test: M1 receptor functional assay (calcium flow, FLIPR); assay type: cell-based; conditions: CHO-K1/M1 cells, read-out: M1R, IC50
T1 sequence (P11229 1-460): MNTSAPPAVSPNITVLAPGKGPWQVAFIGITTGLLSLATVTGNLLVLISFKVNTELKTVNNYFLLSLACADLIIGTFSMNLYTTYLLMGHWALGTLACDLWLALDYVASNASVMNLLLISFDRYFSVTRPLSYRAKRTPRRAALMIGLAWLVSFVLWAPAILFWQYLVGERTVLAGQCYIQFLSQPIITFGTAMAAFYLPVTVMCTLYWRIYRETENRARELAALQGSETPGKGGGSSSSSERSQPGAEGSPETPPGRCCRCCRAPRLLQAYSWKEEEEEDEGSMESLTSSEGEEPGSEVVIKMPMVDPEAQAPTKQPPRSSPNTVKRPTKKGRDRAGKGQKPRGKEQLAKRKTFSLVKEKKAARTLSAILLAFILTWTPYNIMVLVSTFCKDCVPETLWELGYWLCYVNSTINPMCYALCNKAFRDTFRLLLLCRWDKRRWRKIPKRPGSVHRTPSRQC

[3] = test system: male ICR mice; test: APO-induced climbing in mice
[4] = target: T2, H1 receptor (Homo sapiens, UniProt P35367); test: H1 receptor functional assay (calcium flow, FLIPR); assay type: cell-based; conditions: HEK293/H1 cells, read-out: H1R, IC50
T2 construct: host or cells: HEK293/H1

[5] = target: 5-HT1B receptor (Homo sapiens, UniProt P28222); test: 5-HT1B receptor functional assay (cAMP assay, inverse agonist); assay type: cell-based; conditions: inverse agonist activity, CHO-K1/5-HT1B cells, read-out: 5HT1BR, EC50
[6] = test system: male ICR mice; test: Forced swimming test in mice; assay type: in vivo; conditions: single oral dose; NH300094 0.03 mg/kg; risperidone 0.01, 0.03 and 0.1 mg/kg
Protocol: Each mouse was required to swim in an open cylindrical container (height of 25 cm, diameter of 10 cm) after intragastric administration of compounds 1 h. The container contained 1.2 L of water with temperature maintained at 24°C ± 1°C. The test used a computerized analysis and tracking system (Clever Sys Inc., Leesburg, VA) to recorded the duration of immobility (last 4 min of a total time of 6 min) about the testing mice.

[7] = target: 5-HT2A receptor (Homo sapiens, UniProt P28223); test: 5-HT2A receptor functional assay (calcium flow, FLIPR, antagonist); assay type: cell-based
[8] = Pharmacokinetics assay in rats; assay type: in vivo, male SD rats
Protocol: Six male SD rats (7 weeks of age) were randomly divided into two groups with three rats per group. Animals were fasted overnight and had free access to water before dosing. For the intravenous group, male SD rats were administered NH300094 by single intravenous bolus administration at a dose of 2 mg/kg. For the oral group, male SD rats were dosed orally with NH300094 at a dose of 10 mg/kg. Serial blood samples were collected at different time points (Pre-dose, 0.033, 0.083, 0.25, 0.5, 1, 2, 4, 6, 8, 12 and 24 h for the intravenous group; Pre-dose, 0.167, 0.333, 0.5, 1, 2, 4, 6, 8, 10, 12 and 24 h for the oral group) via jugular vein puncture from each study animal. All blood samples were transferred into commercial tube containing K2-EDTA. Plasma samples were prepared by centrifuging the blood samples at approximately 4°C, 3,200×g for 15 min, and then stored at −70°C until analysis (Supplementary Materials). The pharmacokinetic parameters were calculated using WinNonlin software (Version 6.3) according to non-compartmental model.

[9] = target: T3, Alpha1A receptor (Homo sapiens, UniProt P35348); test: Alpha1A receptor functional assay (calcium flow, FLIPR); assay type: cell-based; conditions: HEK293/Alpha1A cells, read-out: Alpha1AR, IC50
T3 construct: expressed in transfected cells; host or cells: HEK293/Alpha1A (constructed by Shanghai shujing Biopharma)
T3 sequence (P35348 1-466): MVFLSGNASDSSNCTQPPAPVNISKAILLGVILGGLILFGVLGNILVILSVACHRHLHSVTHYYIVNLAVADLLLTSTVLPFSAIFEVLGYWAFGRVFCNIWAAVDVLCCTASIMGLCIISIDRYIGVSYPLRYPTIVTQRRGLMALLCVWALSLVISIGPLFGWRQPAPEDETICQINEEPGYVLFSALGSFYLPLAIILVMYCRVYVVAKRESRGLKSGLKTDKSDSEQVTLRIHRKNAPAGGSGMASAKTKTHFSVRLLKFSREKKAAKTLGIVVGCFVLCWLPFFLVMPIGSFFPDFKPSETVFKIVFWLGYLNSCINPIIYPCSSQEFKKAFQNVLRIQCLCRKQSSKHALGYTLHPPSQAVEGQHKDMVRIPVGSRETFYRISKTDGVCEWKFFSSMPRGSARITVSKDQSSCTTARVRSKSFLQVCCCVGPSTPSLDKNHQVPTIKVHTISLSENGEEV

[10] = rat, plasma, intravenous, 2 mg/kg, male SD rats
[11] = rat, plasma, oral, 10 mg/kg, male SD rats

5-HT2A receptor, sequence (P28223 whole entry): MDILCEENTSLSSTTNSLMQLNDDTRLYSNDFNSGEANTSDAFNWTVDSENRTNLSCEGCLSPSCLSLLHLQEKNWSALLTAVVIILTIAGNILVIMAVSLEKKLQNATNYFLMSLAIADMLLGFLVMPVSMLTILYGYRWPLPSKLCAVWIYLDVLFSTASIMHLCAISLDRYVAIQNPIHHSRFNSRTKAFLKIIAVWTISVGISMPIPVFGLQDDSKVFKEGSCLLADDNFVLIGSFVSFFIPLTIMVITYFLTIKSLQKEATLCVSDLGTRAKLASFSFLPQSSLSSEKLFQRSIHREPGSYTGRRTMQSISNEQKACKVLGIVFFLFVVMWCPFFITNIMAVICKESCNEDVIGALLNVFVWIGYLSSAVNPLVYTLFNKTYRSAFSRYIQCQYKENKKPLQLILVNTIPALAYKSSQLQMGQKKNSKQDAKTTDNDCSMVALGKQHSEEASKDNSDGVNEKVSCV
5-HT1B receptor, sequence (P28222 whole entry): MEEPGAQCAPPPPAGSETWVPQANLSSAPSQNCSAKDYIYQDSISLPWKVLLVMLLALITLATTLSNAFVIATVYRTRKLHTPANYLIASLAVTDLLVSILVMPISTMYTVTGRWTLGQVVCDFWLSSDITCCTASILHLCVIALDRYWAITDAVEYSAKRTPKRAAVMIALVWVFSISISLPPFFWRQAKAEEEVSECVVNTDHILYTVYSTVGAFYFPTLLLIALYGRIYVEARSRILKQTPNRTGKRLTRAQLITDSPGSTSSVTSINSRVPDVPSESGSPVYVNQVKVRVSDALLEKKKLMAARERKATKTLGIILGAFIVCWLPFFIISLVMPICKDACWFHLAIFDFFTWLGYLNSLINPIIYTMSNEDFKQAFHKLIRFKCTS
T2 sequence (P35367 whole entry): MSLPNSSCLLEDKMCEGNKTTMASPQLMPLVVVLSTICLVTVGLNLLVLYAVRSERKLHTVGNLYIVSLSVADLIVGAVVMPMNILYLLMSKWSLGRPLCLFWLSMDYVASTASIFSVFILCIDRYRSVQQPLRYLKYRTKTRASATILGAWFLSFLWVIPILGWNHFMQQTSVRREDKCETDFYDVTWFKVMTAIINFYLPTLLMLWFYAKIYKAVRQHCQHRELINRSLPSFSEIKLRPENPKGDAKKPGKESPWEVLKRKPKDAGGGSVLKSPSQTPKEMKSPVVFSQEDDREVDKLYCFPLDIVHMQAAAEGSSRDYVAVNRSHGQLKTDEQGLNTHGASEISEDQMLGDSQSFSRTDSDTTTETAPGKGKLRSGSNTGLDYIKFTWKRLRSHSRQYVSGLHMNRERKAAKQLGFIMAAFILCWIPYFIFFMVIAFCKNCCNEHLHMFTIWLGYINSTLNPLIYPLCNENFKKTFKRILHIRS
D2L receptor, sequence (P14416 whole entry): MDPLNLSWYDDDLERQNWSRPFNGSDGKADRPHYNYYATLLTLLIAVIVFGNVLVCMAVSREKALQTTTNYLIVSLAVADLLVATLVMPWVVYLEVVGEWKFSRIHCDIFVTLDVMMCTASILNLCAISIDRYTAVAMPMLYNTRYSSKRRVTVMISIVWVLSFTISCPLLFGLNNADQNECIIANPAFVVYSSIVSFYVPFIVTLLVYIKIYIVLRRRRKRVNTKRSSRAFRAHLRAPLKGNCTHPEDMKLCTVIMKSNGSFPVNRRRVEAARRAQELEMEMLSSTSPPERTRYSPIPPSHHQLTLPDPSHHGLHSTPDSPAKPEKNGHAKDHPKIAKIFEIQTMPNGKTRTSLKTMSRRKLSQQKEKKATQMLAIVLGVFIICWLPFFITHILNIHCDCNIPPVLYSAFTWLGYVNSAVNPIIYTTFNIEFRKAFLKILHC

Compound `O=C1CCc2cc(OCCCN3CCC(c4noc5cc(F)ccc45)CC3)cc3c2N1CC3` [NH300094, 8-(3-(4-(6-fluorobenzo [d]isoxazol-3-yl)piperidin-1-yl)propoxy)-1,2,5,6-tetrahydro-4H-pyrrolo [3,2,1-ij] quinolin-4-one] has an IC50 [1] of 1.04 ± 0.59 nM, an IC50 [2] of 3520 nM and an ED50 ([3]; Mus musculus, read-out: ED50, inhibition of APO-induced climbing) of about 0.29 mg/kg. For the same compound, the “MED, APO-induced climbing” value ([3]; single oral dose, male ICR mice) was 0.3 mg/kg, the IC50 [4] was 126 nM and the EC50 [5] was 28.4 ± 12.5 nM. For the same compound, the “effect on immobility time in the FST” value [6] was “decreased immobility time”, the “antagonistic activities ratio of 5-HT2AR and D2R (IC50 ratio)” value ([7]; IC50 5-HT2AR / IC50 D2R) was 0.45 and the IC50 ([7]; antagonist activity, calcium flow FLIPR, CHO-K1/5-HT2A cells, read-out: 5HT2AR, IC50) was 0.47 ± 0.79 nM. For the same compound, the bioavailability ([8]; male, SD, rat, plasma, oral, 10 mg/kg, oral 10 mg/kg vs intravenous 2 mg/kg, male SD rats) was about 87.6%, the “area under the concentration time-curves for time zero to infinity” value ([8]; oral administration, rats (rounded value in text)) was 14800 ng/mL*h and the AUC(0-inf) [8, 10] was 3380 ng·h/mL. It also gave an AUC(0-t) [8, 10] of 3370 ng·h/mL, a C0 [8, 10] of 10800 ng/mL and a clearance [8, 10] of 9.91 mL/min/kg. For the same compound, the half-life [8, 10] was 1.73 h, the Vd ([8]; rat, plasma, intravenous, 2 mg/kg, male SD rats, read-out: Vdss) was 0.379 L/kg and the AUC(0-inf) [8, 11] was 14800 ng·h/mL. It also gave an AUC(0-t) [8, 11] of 14800 ng·h/mL, a Cmax [8, 11] of 8710 ng/mL and a Tmax [8, 11] of 0.389 h. The half-life [8, 11] was 1.28 h and the IC50 [9] was 28.5 nM.
